According to the supplement of paper PMC10307832:

Key:
Assay in all cases: relative viability (nuclei count vs DMSO), 5 days (fraction); higher = more cells survive
VX-702 + Foretinib = compound: NC(=O)c1ccc(N(C(N)=O)c2c(F)cccc2F)nc1-c1ccc(F)cc1F [VX-702] + COc1cc2c(Oc3ccc(NC(=O)C4(C(=O)Nc5ccc(F)cc5)CC4)cc3F)ccnc2cc1OCCCN1CCOCC1 [Foretinib] (partner 0.25 µM)
Summary of the method: (§1)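 Relative viability was taken as the ratio of nuclei in treated wells to nuclei in vehicle wells. Lung cancer cell lines in 1536-well plates received compounds by pin tool one day after seeding, either one drug alone or a fixed anchor-drug dose plus five library-drug doses (not always all listed) in √10 steps. Nuclei were counted on 4× images after 5 days of treatment, and values are medians of duplicate plates.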

VX-702 + Linsitinib = compound: NC(=O)c1ccc(N(C(N)=O)c2c(F)cccc2F)nc1-c1ccc(F)cc1F [VX-702] + C[C@]1(O)C[C@@H](c2nc(-c3ccc4ccc(-c5ccccc5)nc4c3)c3c(N)nccn32)C1 [Linsitinib] (partner 1 µM)
Summary of the method: as §1

Dabrafenib + Tozasertib = compound: CC(C)(C)c1nc(-c2cccc(NS(=O)(=O)c3c(F)cccc3F)c2F)c(-c2ccnc(N)n2)s1 [Dabrafenib] + Cc1cc(Nc2cc(N3CCN(C)CC3)nc(Sc3ccc(NC(=O)C4CC4)cc3)n2)n[nH]1 [Tozasertib] (partner 0.1 µM)
Summary of the method: as §1

VX-702 + Bortezomib = compound: NC(=O)c1ccc(N(C(N)=O)c2c(F)cccc2F)nc1-c1ccc(F)cc1F [VX-702] + CC(C)C[C@H](NC(=O)[C@H](Cc1ccccc1)NC(=O)c1cnccn1)B(O)O [Bortezomib] (partner 0.002 µM)
Summary of the method: as §1

Cell Line | relative viability (VX-702 + Foretinib; first compound 0.02 µM) | relative viability (VX-702 + Foretinib; first compound 0.2 µM) | relative viability (VX-702 + Foretinib; first compound 0.6325 µM) | relative viability (VX-702 + Foretinib; first compound 2 µM) | relative viability (VX-702 + Linsitinib; first compound 0.02 µM) | relative viability (VX-702 + Linsitinib; first compound 0.2 µM) | relative viability (VX-702 + Linsitinib; first compound 0.6325 µM) | relative viability (VX-702 + Linsitinib; first compound 2 µM) | relative viability (Dabrafenib + Tozasertib; first compound 0.003 µM) | relative viability (Dabrafenib + Tozasertib; first compound 0.009487 µM) | relative viability (Dabrafenib + Tozasertib; first compound 0.03 µM) | relative viability (Dabrafenib + Tozasertib; first compound 0.09487 µM) | relative viability (Dabrafenib + Tozasertib; first compound 0.3 µM) | relative viability (VX-702 + Bortezomib; first compound 0.02 µM) | relative viability (VX-702 + Bortezomib; first compound 0.2 µM) | relative viability (VX-702 + Bortezomib; first compound 0.6325 µM) | relative viability (VX-702 + Bortezomib; first compound 2 µM)
EKVX | 0.754 | 0.432 | 0.49 | 0.685 | 0.946 | 1.01 | 1.01 | 0.988 | 0.475 | 0.406 | 0.407 | 0.337 | 0.457 | 1.01 | 0.738 | 1.05 | 1.42
EMC-BAC-2 | 0.597 | 0.93 | 0.999 | 1.06 | 0.83 | 0.796 | 0.816 | 0.892 | 0.286 | 0.284 | 0.23 | 0.243 | 0.267 | 1.11 | 1.04 | 1.04 | 1.09
EPLC-272H | 0.6 | 0.659 | 0.667 | 0.817 | 1 | 1.1 | 1.13 | 1.28 | 0.345 | 0.326 | 0.33 | 0.273 | 0.256 | 0.897 | 0.836 | 1.05 | 0.956
H3255 | 1.01 | 0.781 | 0.89 | 0.855 | 0.941 | 0.856 | 0.866 | 0.929 | 0.507 | 0.675 | 0.721 | 0.609 | 0.629 | 0.716 | 0.772 | 1.02 | 0.917
HARA | 0.852 | 0.763 | 0.908 | 0.814 | 1.02 | 0.877 | 0.927 | 0.797 | 0.101 | 0.116 | – | 0.115 | 0.113 | 0.605 | 1.05 | 1.17 | 1.34
HCC-15 | 0.952 | 0.915 | 0.99 | 0.793 | 0.825 | 0.766 | 0.843 | 0.952 | 0.602 | 0.506 | 0.355 | 0.398 | 0.386 | 1.07 | 0.929 | 1.09 | 1.05
HCC-44 | – | – | – | – | 0.618 | 0.671 | 0.617 | 0.65 | 0.959 | 0.974 | 0.976 | 0.836 | 0.989 | 0.909 | 0.856 | 0.845 | 0.992
HCC-78 | 0.523 | 0.527 | 0.59 | 0.479 | 0.448 | 0.508 | 0.427 | 0.492 | – | 0.485 | 0.42 | 0.387 | 0.54 | 0.314 | 0.521 | 0.472 | 0.506
HCC-366 | 0.896 | 0.873 | 0.955 | 0.922 | 0.592 | 0.375 | 0.615 | 0.47 | 0.088 | 0.187 | 0.0643 | 0.104 | 0.0995 | 1.01 | 0.969 | 1.12 | 0.634
HCC-827 | 1.07 | 0.988 | 1.07 | 0.787 | 0.931 | 0.927 | 0.953 | 0.71 | 0.426 | 0.457 | 0.383 | – | 0.377 | 0.966 | 1.03 | 0.997 | 0.541
